Consider two compounds from US8193218B2, “Aroyl-piperidine derivatives and method of treating disorders induced by substance P” (Novartis AG, priority 2002, dated 2012).

As a reminder, the melting point is the temperature, or range, at which the solid turns liquid. As a reminder, the IC50 is the concentration needed to halve the response being measured.

The target of data set [1] is T1, binding of H^3-substance P to bovine retina (Bos taurus, UniProt F1MIX5).
T1 construct: from tissue; host or cells: bovine retina
Put plainly: binding of H^3-substance P to bovine retina, radio receptor assay. The conditions noted are these: read-out: in vitro values (IC50), inhibition of binding of H^3-substance P to bovine retina. As for the experimental part: In addition, the binding of H^3-substance P to bovine retina in the radio receptor assay according to H. Bittiger, Ciba Foundation Symposium 91, 196-199 (1982) is inhibited with IC50 values of from approximately 1 nmol. For example, the following in vitro values of about 10 nM were obtained for the target compounds of Examples 1 and 2.

T1 sequence (F1MIX5 1-407): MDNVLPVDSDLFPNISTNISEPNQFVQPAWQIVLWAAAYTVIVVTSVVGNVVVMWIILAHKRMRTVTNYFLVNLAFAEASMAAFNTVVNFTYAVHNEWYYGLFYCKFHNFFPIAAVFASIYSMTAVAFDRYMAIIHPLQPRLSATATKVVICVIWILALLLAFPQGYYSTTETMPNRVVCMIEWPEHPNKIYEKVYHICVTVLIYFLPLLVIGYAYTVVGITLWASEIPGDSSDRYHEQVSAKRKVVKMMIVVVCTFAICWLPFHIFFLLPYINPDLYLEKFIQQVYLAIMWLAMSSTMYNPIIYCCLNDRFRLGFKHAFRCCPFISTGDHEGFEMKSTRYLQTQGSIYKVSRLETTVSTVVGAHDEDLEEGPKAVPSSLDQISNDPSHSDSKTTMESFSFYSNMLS

On to `O=C(N[C@H]1CCN(C(=O)c2cc(C(F)(F)F)cc(C(F)(F)F)c2)[C@H](Cc2ccc(Cl)cc2)C1)c1cc(O)nc2ccccc12` [Example 2, 2-Hydroxy-quinoline-4-carboxylic acid [(2R,4S)-1-(3,5-bis-trifluoromethyl-benzoyl)-2-(4-chloro-benzyl)-piperidin-4-yl]-amide], for which the melting point lay in the range of 222 to 224 °C. Also, the 50% inhibitory concentration (IC50) in data set [1] is around 10 nM.

`O=C(N[C@H]1CCN(C(=O)c2cc(C(F)(F)F)cc(C(F)(F)F)c2)[C@H](Cc2ccc(Cl)cc2)C1)c1cc[n+]([O-])c2ccccc12` [Example 1, 1-Oxy-quinoline-4-carboxylic acid [(2R,4S)-1-(3,5-bis-trifluoromethyl-benzoyl)-2-(4-chloro-benzyl)-piperidin-4-yl]-amide] yielded a melting point of 223 to 225 °C. In data set [1], the IC50 was around 10 nM.
